# Test results taken from patent US12116343B2, “Inhibitors of APOL1 and methods of using same” (Vertex Pharmaceuticals Incorporated, priority 2020, dated 2024).
# Target: T1, G1 APOL1 (Homo sapiens, UniProt O14791, I384M/S342G)
# T1 construct: expressed in transfected cells
# T1 sequence (O14791 28-398 S342G/I384M): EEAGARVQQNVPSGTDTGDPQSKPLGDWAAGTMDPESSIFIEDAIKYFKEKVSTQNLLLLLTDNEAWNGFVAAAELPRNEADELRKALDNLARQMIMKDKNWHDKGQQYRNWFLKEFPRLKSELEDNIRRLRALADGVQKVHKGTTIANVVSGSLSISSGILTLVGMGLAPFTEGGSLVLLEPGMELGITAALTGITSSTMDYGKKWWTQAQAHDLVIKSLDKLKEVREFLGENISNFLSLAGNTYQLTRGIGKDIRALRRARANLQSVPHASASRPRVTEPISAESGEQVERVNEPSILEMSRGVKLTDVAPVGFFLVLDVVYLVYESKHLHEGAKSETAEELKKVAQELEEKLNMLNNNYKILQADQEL
# Assay: Acute APOL1 Thallium Assay with inducible stable clones of HEK 293 cells
# Assay type: cell-based
# Conditions: HEK 293 T-Rex cells expressing G1 APOL1; read-out: Thallium Assay (IC50)
# Description: Acute APOL1 Thallium Assay with Inducible Stable Clones of HEK 293 Cells
# Apolipoprotein L1 (APOL1) proteins form potassium-permeable cation pores in the plasma membrane. APOL1 risk variants (G1 and G2) induce greater potassium flux than G0 in HEK293 cells. This assay exploits the permeability of thallium (Tl+) through ligand-gated potassium channels. The dye produces a bright fluorescent signal upon binding to Tl+ conducted through potassium channels. The intensity of the Tl+ signal is proportional to the number of potassium channels in the open state. Therefore, it provides a functional indication of the potassium channel activities. During the initial dye-loading step, the Tl+ indicator dye as an acetoxymethyl (AM) ester enters the cells through passive diffusion. Cytoplasm esterases cleave the AM ester and relieve its active thallium-sensitive form. The cells are then stimulated with Tl+. The increase of fluorescence in the assay represents the influx of Tl+ into the cell specifically through the potassium channel (i.e. through APOL1 pores), providing a functional measurement of potassium channel/pore activity. The Thallium assay is conducted with cells expressing G1 APOL1.
# APOL1 Cell Line (HEK T-Rex Stable Inducible Cell Line) • HEK T-Rex System • Tetracycline (Tet) inducible mammalian expression system. • Stably express the Tet repressor to regulate transcription. • Expression under the full-length CMV promoter. • APOL1 stable inducible cell line Clone used: G1 DC3.25
# Tissue Culture Media • Cell Culture Medium • DMEM+10% FBS+P/S+5 μg/mL blasticidin+1 μg/mL puromycin. • 500 mL DMEM+55 mL FBS+5 mL P/S+280 μL blasticidin S HCl (10 mg/mL)+56 μL puromycin (10 mg/mL). • Cell Assay Medium • DMEM with 2% FBS+pen strep.
# Instruments and Equipment • Nuaire cell culture hood, Cat. No. 540-600 • 37° C./5% CO2 incubator link to robotic arm, Liconic: STX110 • Molecular Devices FLIPR^Tetra High throughput cellular screening system, Cat. No. FT0324, Molecular Devices • ThermoFisher MultiDrop 384, Cat. No. 5840300 • Biotek Microfill, Cat. No. ASF1000A-4145 • BioRad TC10 cell counter, Cat. No. 145-0010 Assay Procedures
# Cells Scaled Up from Frozen Vials • APOL1 G1 3.25 (HEK293 T-Rex) frozen vials: 5 million cells per vial • Step 1, Day 1: Defrost frozen vial into T-225. • Step 2, Day 5: (when 85% confluent): Split one T-225 at 3×10^6 cells per flask. • Step 3, Day 8: Splits cells to set up for the assay plates as described below.
# T-Rex APOL1 HEK cells are split twice per week to keep the confluence state below 85% of the culture flask surface area. Cells can be kept until passage 25. • Cell Culture Medium • DMEM high glucose+10% FBS, +P/S, +5 μg/mL blasticidin, +1 μg/mL puromycin. • 500 mL DMEM, +55 mL FBS, +5 mL P/S, +280 μL blasicidin 10 mg/mL, +56 μL Puromycin 10 mg/mL. • Assay Media • Opti-MEM reduced serum medium from Invitrogen.
# Preparation of Cell Assay Plates • Culture medium is removed from the x cm^2 T-flask by aspiration. • The cell monolayer is rinsed with PBS 1× at room temperature. PBS is removed by aspiration. • Cells are trypsinized using Trypsin. • The flasks are incubated at room temperature for 2-3 minutes. • Complete DMEM medium is then added. Cell suspension is then transferred to a 50 mL Falcon polypropylene tube. • Cells are then counted using a Biorad TC10 cell counter and the required amount of cells are centrifuged at 1200 RPM for 5 minutes. Required amount is 1.3×10^6 cells/mL APOL1 T-Rex HEK cells. • The pellet is suspended in the assay medium. • Using the MultiDrop, add 20 μL to each well (corresponds to 26000 cells total per well) of a 384-well black, transparent, flat bottom Poly-D coated plate. • Tetracycline as prepared in the following section is added to the cells before plating to induce APOL1 expression. • Plates are left at room temperature for 20 to 30 minutes before incubation at 37° C. and 5% CO2. […]
row,IC50 [µM],Compound
1,> 1,CC[C@@H](CO)NC(=O)[C@H]1C[C@@H](c2c(-c3ccc(F)cc3)[nH]c3c(F)cc(F)cc32)C1 [Compound 257]
2,> 1,CC(CO)NC(=O)[C@H]1C[C@@H](c2c(-c3ccc(F)cc3)[nH]c3c(F)cc(F)cc32)C1 (mixture of isomers) [Compound 243]
3,< 0.25,NC(=O)CNC(=O)C1CC(c2c(-c3ccc(F)cc3)[nH]c3c(F)cc(C(F)(F)F)cc23)C1 (stereo not shown) [Compound 280]
4,0.25 to 1,C[C@@H](CO)NC(=O)[C@H]1C[C@@H](c2c(-c3ccc(F)cc3)[nH]c3c(F)cc(F)cc32)C1 [Compound 271]
5,> 1,Cn1cnc(CNC(=O)[C@H]2C[C@@H](c3c(-c4ccc(F)cc4)[nH]c4c(F)cc(F)cc43)C2)c1 [Compound 261]
6,> 1,NC(=O)CNC(=O)[C@H]1C[C@@H](c2c(-c3ccc(F)cc3)[nH]c3c(F)cc(F)cc32)C1 [Compound 250]
7,> 1,CC(O)[C@H](CO)NC(=O)[C@H]1C[C@@H](c2c(-c3ccc(F)cc3)[nH]c3c(F)cc(F)cc32)C1 (stereo partly shown) [Compound 270]
8,> 1,O=C(NCCn1cncn1)[C@H]1C[C@@H](c2c(-c3ccc(F)cc3)[nH]c3c(F)cc(F)cc32)C1 [Compound 264]
9,> 1,CC(C)C(CO)NC(=O)[C@H]1C[C@@H](c2c(-c3ccc(F)cc3)[nH]c3c(F)cc(F)cc32)C1 (stereo partly shown) [Compound 254]

# Same assay, conditions: Table 24, Compounds 287 to 465; read-out: Thallium Assay (IC50)
row,IC50 [µM],Compound
1,0.25 to 1,CC(C)(CO)NC(=O)O[C@H]1C[C@H](c2c(-c3ccc(F)cc3)[nH]c3c(F)cc(F)cc32)C1 [Compound 352]
2,0.25 to 1,O=C(NCC(F)F)O[C@H]1C[C@H](c2c(-c3ccc(F)cc3)[nH]c3c(F)cc(F)cc32)C1 [Compound 351]
3,> 1,O=C(N[C@H]1CCNC1=O)O[C@H]1C[C@H](c2c(-c3ccc(F)cc3)[nH]c3c(F)cc(F)cc32)C1 [Compound 371]
4,0.25 to 1,O=C(CC1CC(c2c(-c3ccc(F)cc3)[nH]c3c(F)cc(F)cc23)C1)NC1(CO)CC1 (stereo not shown) [Compound 453]
5,> 1,C[C@@H](O)CNC(=O)N[C@H]1C[C@H](c2c(-c3ccc(F)cc3)[nH]c3c(F)cc(F)cc32)C1 [Compound 296]
6,> 1,O=C(NCC1CCOC1)C1CC(Cc2c(-c3ccc(F)cc3)[nH]c3c(F)cc(F)cc23)C1 (stereo not shown) [Compound 330]
7,> 1,CC1(O)CC(NC(=O)NC[C@H]2C[C@H](c3c(-c4ccc(F)cc4)[nH]c4c(F)cc(F)cc43)C2)C1 (stereo partly shown) [Compound 401]
8,> 1,CC(NC(=O)C1CC(Cc2c(-c3ccc(F)cc3)[nH]c3c(F)cc(F)cc23)C1)C1CCOC1 (mixture of isomers) [Compound 345]
9,0.25 to 1,O=C(NCc1cnco1)O[C@H]1C[C@H](c2c(-c3ccc(F)cc3)[nH]c3c(F)cc(F)cc32)C1 [Compound 353]
10,> 1,CC(=O)NCCNC(=O)C1CC(Cc2c(-c3ccc(F)cc3)[nH]c3c(F)cc(F)cc23)C1 (stereo not shown) [Compound 320]
11,> 1,CC(O)C(C)NC(=O)O[C@H]1C[C@H](c2c(-c3ccc(F)cc3)[nH]c3c(F)cc(F)cc32)C1 (mixture of isomers) [Compound 363]
12,> 1,O=C(NCC1(O)CCC1)C1CC(Cc2c(-c3ccc(F)cc3)[nH]c3c(F)cc(F)cc23)C1 (stereo not shown) [Compound 322]
13,> 1,O=C(CC1CC(c2c(-c3ccc(F)cc3)[nH]c3c(F)cc(F)cc23)C1)N[C@H]1CCNC1=O (stereo partly shown) [Compound 456]
14,> 1,O=C(CC1CC(c2c(-c3ccc(F)cc3)[nH]c3c(F)cc(F)cc23)C1)NCCO (stereo not shown) [Compound 459]
15,> 1,O=C(NC[C@H]1C[C@H](c2c(-c3ccc(F)cc3)[nH]c3c(F)cc(F)cc32)C1)N[C@H]1CC[C@@H]1O [Compound 402]
16,0.25 to 1,"C[C@@H](CO)NC(=O)N[C@H]1C[C@H](c2c(-c3ccc(F)cc3)[nH]c3c(F)cc(F)cc32)C1 [Compound 295, 1-((1r,3S)-3-(5,7-difluoro-2-(4-fluorophenyl)-1H-indol-3-yl)cyclobutyl)-3-((S)-1-hydroxypropan-2-yl)urea]"
17,> 1,C[C@H](CO)NC(=O)CC1CC(c2c(-c3ccc(F)cc3)[nH]c3c(F)cc(F)cc23)C1 (stereo partly shown) [Compound 454]

row,IC50 [µM],Compound
1,> 1,O=C(NC[C@H]1C[C@H](c2c(-c3ccc(F)cc3)[nH]c3c(F)cc(F)cc32)C1)N[C@@H](CO)C(F)(F)F [Compound 413]
2,> 1,COC1CC1NC(=O)O[C@H]1C[C@H](c2c(-c3ccc(F)cc3)[nH]c3c(F)cc(F)cc32)C1 (stereo partly shown) [Compound 376]
3,0.25 to 1,C[C@H](CO)NC(=O)O[C@H]1C[C@H](c2c(-c3ccc(F)cc3)[nH]c3c(F)cc(F)cc32)C1 [Compound 354]
4,> 1,O=C(NCC1CCOC1)O[C@H]1C[C@H](c2c(-c3ccc(F)cc3)[nH]c3c(F)cc(F)cc32)C1 (stereo partly shown) [Compound 384]
5,> 1,O=C(NCc1cn(CC(F)(F)F)cn1)O[C@H]1C[C@H](c2c(-c3ccc(F)cc3)[nH]c3c(F)cc(F)cc32)C1 [Compound 386]
6,> 1,C[C@@H](CO)NC(=O)CC1CC(c2c(-c3ccc(F)cc3)[nH]c3c(F)cc(F)cc23)C1 (stereo partly shown) [Compound 458]
7,> 1,CC(CO)N(C)C(=O)NC[C@H]1C[C@H](c2c(-c3ccc(F)cc3)[nH]c3c(F)cc(F)cc32)C1 (mixture of isomers) [Compound 412]
8,> 1,CC(C)(NCC1CC(c2c(-c3ccc(F)cc3)[nH]c3c(F)cc(F)cc23)C1)C(N)=O (stereo not shown) [Compound 440]
9,> 1,O=C(N[C@H]1COC[C@@H]1O)O[C@H]1C[C@H](c2c(-c3ccc(F)cc3)[nH]c3c(F)cc(F)cc32)C1 [Compound 389]
10,> 1,O=C(NCc1ncc[nH]1)O[C@H]1C[C@H](c2c(-c3ccc(F)cc3)[nH]c3c(F)cc(F)cc32)C1 [Compound 373]
11,> 1,CC(NC(=O)C1CC(Cc2c(-c3ccc(F)cc3)[nH]c3c(F)cc(F)cc23)C1)c1ccn(C)n1 (mixture of isomers) [Compound 312]
12,> 1,Cn1cncc1CNC(=O)C1CC(Cc2c(-c3ccc(F)cc3)[nH]c3c(F)cc(F)cc23)C1 (stereo not shown) [Compound 344]
13,> 1,CC(C)(C)[C@H](CO)NC(=O)NC[C@H]1C[C@H](c2c(-c3ccc(F)cc3)[nH]c3c(F)cc(F)cc32)C1 [Compound 416]
14,> 1,O=C(NC[C@H]1C[C@H](c2c(-c3ccc(F)cc3)[nH]c3c(F)cc(F)cc32)C1)N[C@H]1C[C@H](O)C1 [Compound 411]
15,> 1,CC(C)C[C@H](CO)NC(=O)C1CC(Cc2c(-c3ccc(F)cc3)[nH]c3c(F)cc(F)cc23)C1 (stereo partly shown) [Compound 302]
16,0.25 to 1,CC(CO)NC(=O)O[C@H]1C[C@H](c2c(-c3ccc(F)cc3)[nH]c3c(F)cc(F)cc32)C1 (mixture of isomers) [Compound 356]
17,> 1,O=C(NCC(O)C(F)F)C1CC(Cc2c(-c3ccc(F)cc3)[nH]c3c(F)cc(F)cc23)C1 (stereo not shown) [Compound 301]
